Here are results for 11 molecules from ChEMBL document CHEMBL3046627, “Synthesis and in vitro study of antibacterial, antifungal activities of some novel bisquinolines” (2013).

≈ marks a conversion by molar mass, not a printed value. Calls of active or inactive are those of the source. No cut-off for these calls is given here. A value given as a limit tells only on which side of the number the result lay.

What is called MIC is the lowest concentration that inhibits growth of the organism.

Type in all cases: functional
Experiment [1] relates to Escherichia coli. Put plainly: Antibacterial activity against Escherichia coli 319 assessed as growth inhibition after 24 hr by agar dilution method. Background: In agar dilution the substance is mixed into plates at graded concentrations.
Experiment [2] has as its system Pseudomonas aeruginosa. Put plainly: Antibacterial activity against Pseudomonas aeruginosa 71 assessed as growth inhibition after 24 hr by agar dilution method.
Experiment [3] relates to Bacillus pumilus. Put plainly: Antibacterial activity against Bacillus pumilus 11778 assessed as growth inhibition after 24 hr by agar dilution method.
Experiment [4] has as its system Klebsiella pneumoniae. Put plainly: Antibacterial activity against Klebsiella pneumoniae J/I/4 assessed as growth inhibition after 24 hr by agar dilution method.
Experiment [5] deals with Cryptococcus neoformans. Put plainly: Antifungal activity against Cryptococcus neoformans assessed as growth inhibition after 96 hr by agar dilution method.
Experiment [6] concerns Staphylococcus aureus. Kind of experiment: Antibacterial activity against Staphylococcus aureus 29737 assessed as growth inhibition after 24 hr by agar dilution method.
Experiment [7] has as its system Micrococcus luteus. Kind of experiment: Antibacterial activity against Micrococcus luteus ATCC 9341 assessed as growth inhibition after 24 hr by agar dilution method.
Experiment [8] concerns Aspergillus niger. Kind of experiment: Antifungal activity against Aspergillus niger assessed as growth inhibition after 96 hr by agar dilution method.
Experiment [9] relates to Vibrio cholerae. Kind of experiment: Antibacterial activity against Vibrio cholerae 759 assessed as growth inhibition after 24 hr by agar dilution method.
Experiment [10] relates to Candida albicans. Kind of experiment: Antifungal activity against Candida albicans assessed as growth inhibition after 96 hr by agar dilution method.
The test system of experiment [11] is Candida tropicalis. Kind of experiment: Antifungal activity against Candida tropicalis assessed as growth inhibition after 96 hr by agar dilution method.
For experiment [12], the system named is Shigella dysenteriae. Put plainly: Antibacterial activity against Shigella dysenteriae 15 assessed as growth inhibition after 24 hr by agar dilution method.
For experiment [13], the system named is Pseudomonas aeruginosa. Kind of experiment: Antibacterial activity against Pseudomonas aeruginosa 71 assessed as growth inhibition at MIC after 24 hr by agar dilution method.
The subject of experiment [14] is Bacillus pumilus. Put plainly: Antibacterial activity against Bacillus pumilus 11778 assessed as growth inhibition at MIC after 24 hr by agar dilution method.
Experiment [15] has as its system Klebsiella pneumoniae. Put plainly: Antibacterial activity against Klebsiella pneumoniae J/I/4 assessed as growth inhibition at MIC after 24 hr by agar dilution method.
Experiment [16] deals with Escherichia coli. Kind of experiment: Antibacterial activity against Escherichia coli 319 assessed as growth inhibition at MIC after 24 hr by agar dilution method.
In experiment [17] the test system is Staphylococcus aureus. Kind of experiment: Antibacterial activity against Staphylococcus aureus 29737 assessed as growth inhibition at MIC after 24 hr by agar dilution method.
Experiment [18] concerns Shigella dysenteriae. Put plainly: Antibacterial activity against Shigella dysenteriae 15 assessed as growth inhibition at MIC after 24 hr by agar dilution method.
Experiment [19] concerns Vibrio cholerae. Kind of experiment: Antibacterial activity against Vibrio cholerae 759 assessed as growth inhibition at MIC after 24 hr by agar dilution method.
Experiment [20] concerns Micrococcus luteus. Kind of experiment: Antibacterial activity against Micrococcus luteus ATCC 9341 assessed as growth inhibition at MIC after 24 hr by agar dilution method.
Experiment [21] deals with Aspergillus niger. Kind of experiment: Antifungal activity against Aspergillus niger assessed as growth inhibition at MIC after 96 hr by agar dilution method.
Experiment [22] deals with Candida albicans. Kind of experiment: Antifungal activity against Candida albicans assessed as growth inhibition at MIC after 96 hr by agar dilution method.
Experiment [23] concerns Candida tropicalis. Kind of experiment: Antifungal activity against Candida tropicalis assessed as growth inhibition at MIC after 96 hr by agar dilution method.
For experiment [24], the system named is Cryptococcus neoformans. Put plainly: Antifungal activity against Cryptococcus neoformans assessed as growth inhibition at MIC after 96 hr by agar dilution method.
Where [25] appears, read: Pseudomonas aeruginosa, 71, 24 h.
[26] abbreviates: Staphylococcus aureus, 29737, 24 h.

For `c1cnc2c(OCc3nc4ccccc4nc3COc3cccc4cccnc34)cccc2c1`, the MIC result in the experiment on Escherichia coli [1], in the experiment with Pseudomonas aeruginosa [2], in the experiment on Bacillus pumilus [3], in the experiment with Klebsiella pneumoniae [4], in the experiment on Cryptococcus neoformans [5] and with Staphylococcus aureus [6] was “inactive” throughout. For the same molecule, the MIC result in the experiment with Micrococcus luteus [7], in the experiment with Aspergillus niger [8], in the experiment on Vibrio cholerae [9], in the experiment on Candida albicans [10], in the experiment with Candida tropicalis [11] and with Shigella dysenteriae [12] was “inactive” throughout.

With `Cc1ccc2cccc(OCc3ccc(COc4cccc5ccc(C)nc45)cc3)c2n1`, the MIC entry in the experiment on Escherichia coli [1], with Pseudomonas aeruginosa [2], with Bacillus pumilus [3], in the experiment with Klebsiella pneumoniae [4], in the experiment on Cryptococcus neoformans [5] and in the experiment on Staphylococcus aureus [6] was “inactive” in each case. Further, the MIC result with Micrococcus luteus [7], with Aspergillus niger [8], in the experiment on Vibrio cholerae [9], with Candida albicans [10], with Candida tropicalis [11] and with Shigella dysenteriae [12] was “inactive” in each case.

On to `CC1(C)S[C@@H]2[C@H](NC(=O)[C@H](N)c3ccc(O)cc3)C(=O)N2[C@H]1C(=O)O` [AMOXICILLIN], for which the MIC in the experiment with Escherichia coli [1] (Escherichia coli, 319, 24 h) amounted to 4 µg/mL (≈ 10.9 µM); with Pseudomonas aeruginosa [2] (setting [25]) it was 256 µg/mL (≈ 701 µM); with Bacillus pumilus [3] (Bacillus pumilus, 11778, 24 h) it was 0.5 µg/mL (≈ 1.37 µM); in the experiment on Klebsiella pneumoniae [4] (J/I/4, 24 h), 256 µg/mL (≈ 701 µM); in the experiment on Staphylococcus aureus [6] (setting [26]), 0.5 µg/mL (≈ 1.37 µM); in the experiment on Micrococcus luteus [7] (ATCC 9341, 24 h), 1 µg/mL (≈ 2.74 µM). The MIC with Vibrio cholerae [9] (Vibrio cholerae, 759, 24 h) came to 256 µg/mL (≈ 701 µM); in the experiment on Shigella dysenteriae [12] (Shigella dysenteriae, 15, 24 h) it was 100 µg/mL (≈ 274 µM). For the same molecule, the “diameter of the inhibition zone (DIZ)” value in the experiment on Pseudomonas aeruginosa [13] was determined as 7.5 mm; with Bacillus pumilus [14] it was 10 mm; in the experiment with Klebsiella pneumoniae [15], 8 mm; in the experiment on Escherichia coli [16] it was 8 mm; in the experiment on Staphylococcus aureus [17], 10.5 mm; with Shigella dysenteriae [18], 9.5 mm. Further, the “diameter of the inhibition zone (DIZ)” value was 7 mm in the experiment with Vibrio cholerae [19] and 11 mm with Micrococcus luteus [20].

Turning to `Clc1ccc(OCc2ccc(COc3ccc(Cl)c4cccnc34)cc2)c2ncccc12`, the MIC result in the experiment on Escherichia coli [1], with Pseudomonas aeruginosa [2], with Bacillus pumilus [3], in the experiment on Klebsiella pneumoniae [4], with Cryptococcus neoformans [5] and with Staphylococcus aureus [6] was “inactive” in each case. Further, the MIC entry in the experiment with Micrococcus luteus [7], with Aspergillus niger [8], in the experiment with Vibrio cholerae [9], in the experiment on Candida albicans [10], in the experiment with Candida tropicalis [11] and in the experiment with Shigella dysenteriae [12] was “inactive” in each case.

Regarding `Cc1ccc2cccc(OCc3cccc(COc4cccc5ccc(C)nc45)c3)c2n1`, the MIC result with Escherichia coli [1], with Pseudomonas aeruginosa [2], in the experiment on Bacillus pumilus [3], in the experiment on Klebsiella pneumoniae [4], with Cryptococcus neoformans [5] and in the experiment with Staphylococcus aureus [6] was “inactive” throughout. Moreover, the MIC result with Micrococcus luteus [7], in the experiment with Aspergillus niger [8], with Vibrio cholerae [9], in the experiment on Candida albicans [10], in the experiment with Candida tropicalis [11] and in the experiment with Shigella dysenteriae [12] was “inactive” throughout. The “diameter of the inhibition zone (DIZ)” value in the experiment with Aspergillus niger [21], with Candida albicans [22], in the experiment with Candida tropicalis [23] and in the experiment on Cryptococcus neoformans [24] was “inactive” each time.

For `c1cnc2c(OCc3ccc(COc4cccc5cccnc45)cc3)cccc2c1`, the MIC entry in the experiment on Escherichia coli [1], in the experiment with Pseudomonas aeruginosa [2], with Bacillus pumilus [3], with Klebsiella pneumoniae [4], in the experiment on Cryptococcus neoformans [5] and in the experiment with Staphylococcus aureus [6] was “inactive” in each case. The MIC entry in the experiment on Micrococcus luteus [7], in the experiment with Aspergillus niger [8], with Vibrio cholerae [9], in the experiment on Candida albicans [10], in the experiment with Candida tropicalis [11] and in the experiment with Shigella dysenteriae [12] was “inactive” each time. Moreover, the “diameter of the inhibition zone (DIZ)” value in the experiment on Candida albicans [22] and with Cryptococcus neoformans [24] was “inactive” throughout.

On to `Cc1ccc2cccc(OCc3cc4ccccc4cc3COc3cccc4ccc(C)nc34)c2n1`, for which the minimal inhibitory concentration (MIC) in the experiment on Escherichia coli [1] (Escherichia coli, 319, 24 h) is above 500 µg/mL; in the experiment on Pseudomonas aeruginosa [2] (setting [25]) it was above 500 µg/mL; in the experiment with Bacillus pumilus [3] (Bacillus pumilus, 11778, 24 h), 64 µg/mL (≈ 136 µM); with Klebsiella pneumoniae [4] (J/I/4, 24 h), above 1000 µg/mL; in the experiment with Staphylococcus aureus [6] (setting [26]), above 500 µg/mL; with Micrococcus luteus [7] (ATCC 9341, 24 h), above 1000 µg/mL. In addition, the MIC with Vibrio cholerae [9] (Vibrio cholerae, 759, 24 h) is above 500 µg/mL; in the experiment with Shigella dysenteriae [12] (Shigella dysenteriae, 15, 24 h), above 500 µg/mL. Besides, the “diameter of the inhibition zone (DIZ)” value with Pseudomonas aeruginosa [13], in the experiment on Klebsiella pneumoniae [15], in the experiment with Vibrio cholerae [19] and with Micrococcus luteus [20] was “inactive” each time. In addition, the MIC result in the experiment with Cryptococcus neoformans [5], in the experiment with Aspergillus niger [8], in the experiment on Candida albicans [10] and with Candida tropicalis [11] was “inactive” each time. For the same molecule, the “diameter of the inhibition zone (DIZ)” value in the experiment with Bacillus pumilus [14] turned out to be 6 mm; with Escherichia coli [16], 7 mm; in the experiment on Staphylococcus aureus [17], 6.1 mm; in the experiment on Shigella dysenteriae [18] it was 8 mm.

For `OC(Cn1cncn1)(Cn1cncn1)c1ccc(F)cc1F` [FLUCONAZOLE], the minimum inhibitory concentration (MIC) in the experiment on Cryptococcus neoformans [5] stood at 8 µg/mL (≈ 26.1 µM); in the experiment on Aspergillus niger [8] it was 10 µg/mL (≈ 32.7 µM); in the experiment on Candida albicans [10], 4 µg/mL (≈ 13.1 µM); with Candida tropicalis [11], 8 µg/mL (≈ 26.1 µM). In addition, the “diameter of the inhibition zone (DIZ)” value stood at 8.6 mm in the experiment with Aspergillus niger [21], 10.2 mm in the experiment with Candida albicans [22], 8.5 mm in the experiment on Candida tropicalis [23] and 8.5 mm with Cryptococcus neoformans [24].

With `c1ccc2cc(COc3cccc4cccnc34)c(COc3cccc4cccnc34)cc2c1`, the MIC was 32 µg/mL (≈ 72.3 µM) in the experiment with Escherichia coli [1] (Escherichia coli, 319, 24 h); above 500 µg/mL with Pseudomonas aeruginosa [2] (setting [25]); 256 µg/mL (≈ 579 µM) in the experiment on Bacillus pumilus [3] (Bacillus pumilus, 11778, 24 h); above 500 µg/mL in the experiment with Klebsiella pneumoniae [4] (J/I/4, 24 h); above 500 µg/mL with Staphylococcus aureus [6] (setting [26]); above 500 µg/mL with Micrococcus luteus [7] (ATCC 9341, 24 h). Further, the MIC in the experiment on Vibrio cholerae [9] (Vibrio cholerae, 759, 24 h) was above 500 µg/mL; in the experiment with Shigella dysenteriae [12] (Shigella dysenteriae, 15, 24 h) it was above 500 µg/mL. In addition, the “diameter of the inhibition zone (DIZ)” value is on record as 8.2 mm in the experiment on Pseudomonas aeruginosa [13]; 9 mm with Bacillus pumilus [14]; 6.4 mm in the experiment on Klebsiella pneumoniae [15]; 9.7 mm in the experiment with Escherichia coli [16]; 6 mm with Staphylococcus aureus [17]; 6 mm with Shigella dysenteriae [18]. In addition, the “diameter of the inhibition zone (DIZ)” value with Vibrio cholerae [19] amounted to 7.1 mm; in the experiment on Micrococcus luteus [20] it was 6 mm. The MIC result in the experiment with Cryptococcus neoformans [5], in the experiment on Aspergillus niger [8], in the experiment with Candida albicans [10] and with Candida tropicalis [11] was “inactive” in each case.

With `Cc1ccc2cccc(OCc3nc4ccccc4nc3COc3cccc4ccc(C)nc34)c2n1`, the MIC result in the experiment with Escherichia coli [1], in the experiment on Pseudomonas aeruginosa [2], in the experiment with Bacillus pumilus [3], in the experiment on Klebsiella pneumoniae [4], in the experiment with Cryptococcus neoformans [5] and in the experiment with Staphylococcus aureus [6] was “inactive” in each case. Further, the MIC result in the experiment on Micrococcus luteus [7], in the experiment on Aspergillus niger [8], in the experiment on Vibrio cholerae [9], with Candida albicans [10], with Candida tropicalis [11] and in the experiment with Shigella dysenteriae [12] was “inactive” each time.

For the molecule GENTAMICIN, the MIC in the experiment on Pseudomonas aeruginosa [2] amounted to 4 µg/mL; in the experiment on Bacillus pumilus [3], 10 µg/mL; with Klebsiella pneumoniae [4], 0.25 µg/mL; with Staphylococcus aureus [6] it was 1 µg/mL; in the experiment on Micrococcus luteus [7], 24 µg/mL; in the experiment on Vibrio cholerae [9] it was 2 µg/mL. Moreover, the minimum inhibitory concentration (MIC) in the experiment with Shigella dysenteriae [12] is 2 µg/mL. Further, the inhibition zone (IZ) with Bacillus pumilus [14] is 7 mm; with Klebsiella pneumoniae [15], 9 mm; in the experiment with Shigella dysenteriae [18], 12 mm; with Vibrio cholerae [19], 11 mm; in the experiment on Micrococcus luteus [20], 7 mm.
